{
  "source": "patent US20160166560A1",
  "about": "“Urea Compounds and Their Use as FAAH Enzyme Inhibitors” (BIAL-PORTELA & Cª, S.A., priority 2013, published 2016)",
  "key": {"FAAH [1]": {"target": "T1, FAAH (Mus musculus, UniProt O08914)", "T1 sequence (O08914 1-579)": "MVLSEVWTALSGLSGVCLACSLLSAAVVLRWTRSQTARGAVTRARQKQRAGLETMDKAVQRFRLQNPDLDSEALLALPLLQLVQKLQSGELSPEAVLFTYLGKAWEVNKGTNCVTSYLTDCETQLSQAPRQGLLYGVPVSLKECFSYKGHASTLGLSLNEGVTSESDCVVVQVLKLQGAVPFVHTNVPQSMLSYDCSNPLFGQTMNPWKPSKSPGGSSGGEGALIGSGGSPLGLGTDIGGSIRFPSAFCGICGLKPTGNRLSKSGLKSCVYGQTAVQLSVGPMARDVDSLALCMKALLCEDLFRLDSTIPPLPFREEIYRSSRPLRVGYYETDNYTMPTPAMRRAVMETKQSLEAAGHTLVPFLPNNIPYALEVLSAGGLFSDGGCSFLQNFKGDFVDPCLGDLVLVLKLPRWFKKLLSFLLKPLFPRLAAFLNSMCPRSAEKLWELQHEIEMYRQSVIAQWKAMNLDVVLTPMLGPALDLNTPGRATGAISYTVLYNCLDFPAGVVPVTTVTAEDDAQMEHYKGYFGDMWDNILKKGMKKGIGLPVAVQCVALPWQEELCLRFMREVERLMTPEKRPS", "assay": "In vitro/ex vivo FAAH activity determination in brain after intra-tracheal instillation", "parameters": "Liver and brain fragments were removed and processed for enzymatic activity determination; from tissue; species or system male NMRI mice", "details": "remaining enzymatic activity vs controls, 1 mg/kg intra-tracheal instillation, sacrificed after 8 h", "method_in_brief": "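Male NMRI mice dosed 1 mg/kg by intra-tracheal instillation under anaesthesia; brain and liver taken at 8 h. Homogenates (15 μg brain, 5 μg liver protein) pre-incubated 15 min at 37 °C, then 12 min with 2 μM [3H]-AEA, pH 7.6; 3H-ethanolamine counted, activity as % of controls.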"}, "CYPs": {"system": "CYPs", "assay": "CYPs metabolic stability assay in HLM (human liver microsomes)", "format": "in vitro ADME", "details": "HLM 1 mg/ml protein, compound 5 μM, 60 min, 37° C.", "method_in_brief": "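Test compound at 5 μM incubated 60 min at 37 °C with HLM (1 mg/ml protein) in 50 mM K-phosphate buffer, 5 mM MgCl2, with and without 1 mM NADPH, after 5 min pre-incubation. Reaction stopped with acetonitrile, added before compound at T0; remaining compound measured by HPLC-MS, duplicates.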"}, "[2]": {"assay": "Solubility assay in purified water", "format": "physicochemical", "details": "pH 5.7, thermodynamic from solid; purified water pH=5.6-5.8, stirring 2 h, room temperature, HPLC", "experimental": "A saturated solution was prepared by adding the test compound in excess to 1 mL of purified water (pH=5.6-5.8) followed by stirring of the mixture for 2 h at room temperature. Thereupon, the un-dissolved material was removed by filtration and the amount of test compound in the filtrate was quantified by HPLC using a calibration curve."}, "FAAH [3]": {"target": "T1, FAAH", "assay": "In vitro/ex vivo FAAH activity determination in liver after intra-tracheal instillation", "parameters": "Liver and brain fragments were removed and processed for enzymatic activity determination; from tissue; host or cells: mouse liver fragment homogenate; species or system male NMRI mice", "details": "remaining enzymatic activity vs controls, 1 mg/kg intra-tracheal instillation, sacrificed after 8 h"}},
  "data": [
    {"smiles": "COc1cccc(CN2CCC(N(C)C(=O)n3cnc(-c4cccc(NC(N)=O)c4)c3)CC2)c1.Cl", "note": "[Example 17, N-(1-(3-methoxybenzyl)piperidin-4-yl)-N-methyl-4-(3-ureidophenyl)-1 H-imidazole-1-carboxamide hydrochloride]", "values": [
      {"measurement": "FAAH Activity - Brain itc (% C)", "setting": "FAAH [1]", "value": 91.9, "unit": "% C"},
      {"measurement": "Control (% remain)", "setting": "CYPs; absence of NADPH", "value": 103.4, "unit": "% remain"},
      {"measurement": "CYP+ (% remain)", "setting": "CYPs; with NADPH 1 mM", "value": 21.4, "unit": "% remain"},
      {"measurement": "solubility at 2 h", "setting": "[2]", "value": 14.1, "unit": "mg/mL"},
      {"measurement": "FAAH Activity - Liver itc (% C)", "setting": "FAAH [3]", "value": 4.2, "unit": "% C"}
    ]}
  ]
}
